# Where a chain is given by its changes, count along the chain named.
# What was measured:
# [1] = molecular target: T1, Aldo-keto reductase family 1 member C3 (Homo sapiens, UniProt P42330); test: Inhibition of recombinant AKR1C3 (unknown origin) after 1 hr by competitive fluorescence assay
# T1 sequence (P42330 whole entry): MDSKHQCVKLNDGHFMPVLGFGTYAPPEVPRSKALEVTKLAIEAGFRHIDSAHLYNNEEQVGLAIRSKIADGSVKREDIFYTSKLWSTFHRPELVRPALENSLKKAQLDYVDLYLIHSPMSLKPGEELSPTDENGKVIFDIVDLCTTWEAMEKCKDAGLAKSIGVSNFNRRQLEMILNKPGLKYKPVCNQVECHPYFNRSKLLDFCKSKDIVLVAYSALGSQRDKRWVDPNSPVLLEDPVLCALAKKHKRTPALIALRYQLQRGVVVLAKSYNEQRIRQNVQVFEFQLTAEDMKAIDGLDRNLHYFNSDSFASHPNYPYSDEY
# [2] = molecular target: T2, Aldo-keto reductase family 1 member C2 (Homo sapiens, UniProt P52895); test: Inhibition of recombinant AKR1C2 (unknown origin) after 1 hr by competitive fluorescence assay
# T2 sequence (P52895 whole entry): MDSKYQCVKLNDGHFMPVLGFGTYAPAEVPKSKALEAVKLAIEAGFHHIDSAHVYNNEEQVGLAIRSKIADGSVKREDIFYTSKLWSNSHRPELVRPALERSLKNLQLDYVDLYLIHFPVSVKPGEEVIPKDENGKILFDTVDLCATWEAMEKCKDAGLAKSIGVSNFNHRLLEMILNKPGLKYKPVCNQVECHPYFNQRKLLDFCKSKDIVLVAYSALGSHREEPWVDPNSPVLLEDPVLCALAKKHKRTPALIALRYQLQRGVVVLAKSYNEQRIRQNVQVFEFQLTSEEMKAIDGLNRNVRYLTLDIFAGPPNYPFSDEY
# [3] = molecular target: T3, Aldo-keto reductase family 1 member C1 (Homo sapiens, UniProt Q04828); test: Inhibition of recombinant AKR1C1 (unknown origin) after 1 hr by competitive fluorescence assay
# T3 sequence (Q04828 whole entry): T2 sequence (P52895 whole entry) with V38T, H47R, V54L, S87C, M151V, H170R, L172Q
# [4] = molecular target: T4, Aldo-keto reductase family 1 member C4 (Homo sapiens, UniProt P17516); test: Inhibition of recombinant AKR1C4 (unknown origin) after 1 hr by competitive fluorescence assay
# T4 sequence (P17516 whole entry): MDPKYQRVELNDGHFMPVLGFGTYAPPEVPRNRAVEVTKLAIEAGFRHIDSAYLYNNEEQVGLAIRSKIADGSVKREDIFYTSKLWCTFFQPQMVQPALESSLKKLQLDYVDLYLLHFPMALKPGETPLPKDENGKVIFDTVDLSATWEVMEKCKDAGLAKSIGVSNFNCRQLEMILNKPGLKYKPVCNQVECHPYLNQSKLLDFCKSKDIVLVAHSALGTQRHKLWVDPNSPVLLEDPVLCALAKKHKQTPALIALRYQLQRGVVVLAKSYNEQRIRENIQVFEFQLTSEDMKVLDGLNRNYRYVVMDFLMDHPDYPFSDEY
# [5] = molecular target: T1, Aldo-keto reductase family 1 member C3; test: Inhibition of AKR1C3 (unknown origin) expressed in human HCT116 cells assessed as formation of PR-104H from PR-104A preincubated for 2 hrs; type: cell-based, HCT-116
Structure (SMILES),IC50 [1],IC50 [2],IC50 [3],IC50 [4],IC50 [5]
O=C(N1CCOCC1)N1CCN(c2ccc(F)cc2)CC1,0.5 µM,> 30 µM,> 30 µM,> 30 µM,
O=C(N1CCOCC1)N1CCN(c2ccccc2)CC1,6.1 µM,> 30 µM,> 30 µM,> 30 µM,
O=C(NC1CCCCC1)N1CCN(c2ccc(Cl)cc2)CC1,> 30 µM,,,,
O=C(N1CCCCC1)N1CCN(c2ccc(Cl)cc2)CC1,3.8 µM,> 30 µM,> 30 µM,> 30 µM,
O=C(c1ccccc1)N1CCN(c2ccc(Cl)cc2)CC1,> 30 µM,,,,
COc1ccccc1N1CCN(C(=O)N2CCOCC2)CC1,20.3 µM,,,,
CS(=O)(=O)Nc1ccc(N2CCN(C(=O)N3CCOCC3)CC2)cc1,> 30 µM,,,,
CN1CCN(C(=O)N2CCN(c3ccc(Cl)cc3)CC2)CC1,> 30 µM,,,,
O=C(N1CCN(CCO)CC1)N1CCN(c2ccc(Cl)cc2)CC1,> 30 µM,,,,
O=C(O)C1CCN(C(=O)N2CCN(c3ccc(Cl)cc3)CC2)CC1,21.9 µM,,,,
O=C(CO)N1CCN(C(=O)N2CCN(c3ccc(Cl)cc3)CC2)CC1,0.46 µM,> 30 µM,> 30 µM,> 30 µM,0.059 µM
O=C(N1CCN(c2ccc(Cl)cc2)CC1)N1CCc2ccccc2C1,0.35 µM,> 30 µM,> 30 µM,> 30 µM,0.39 µM
O=S(=O)(N1CCOCC1)N1CCN(c2ccc(Cl)cc2)CC1,> 30 µM,,,,
S=C(N1CCOCC1)N1CCN(c2ccc(Cl)cc2)CC1,> 30 µM,,,,
O=C(N1CCOCC1)N1CCCN(c2ccc(Cl)cc2)CC1,30 µM,,,,
O=C(N1CCOCC1)N1CC2CC1CN2c1ccc(Cl)cc1 (stereo not given),3.7 µM,> 30 µM,> 30 µM,> 30 µM,
CC(=O)Nc1ccc(N2CCN(C(=O)N3CCOCC3)CC2)cc1,> 30 µM,,,,
O=C(N1CCOCC1)N1CCN(c2ccc(Cl)cc2Cl)CC1,0.025 µM,> 30 µM,> 30 µM,> 30 µM,0.003 µM
Cc1cc(Cl)ccc1N1CCN(C(=O)N2CCOCC2)CC1,0.11 µM,> 30 µM,> 30 µM,> 30 µM,0.013 µM
O=C(N1CCOCC1)N1CCN(c2ccc(Cl)cc2CO)CC1,0.16 µM,> 30 µM,> 30 µM,> 30 µM,0.013 µM
O=C(N1CCOCC1)N1CCN(c2ccc(Cl)nc2)CC1,0.53 µM,> 30 µM,> 30 µM,> 30 µM,
O=C(N1CCOCC1)N1CCN(c2ccc(Br)cn2)CC1,0.1 µM,> 30 µM,> 30 µM,> 30 µM,0.031 µM
O=C(N1CCOCC1)N1CCN(Cc2ccc(Cl)cc2)CC1,0.35 µM,> 30 µM,> 30 µM,> 30 µM,
O=C(c1ccc(Cl)cc1)N1CCN(C(=O)N2CCOCC2)CC1,0.48 µM,> 30 µM,> 30 µM,> 30 µM,
O=C(C1CCOCC1)N1CCN(c2ccc(Cl)cc2)CC1,> 30 µM,,,,
O=C(C1CCCCC1)N1CCN(c2ccc(Cl)cc2)CC1,> 30 µM,,,,
O=C(Nc1ccccc1)N1CCN(c2ccc(Cl)cc2)CC1,> 30 µM,,,,

Structure (SMILES),IC50 [1],IC50 [2],IC50 [3],IC50 [4],IC50 [5]
O=C(c1ccncc1)N1CCN(c2ccc(Cl)cc2)CC1,12.6 µM,,,,
O=C(N1CCSCC1)N1CCN(c2ccc(Cl)cc2)CC1,9.1 µM,> 30 µM,> 30 µM,> 30 µM,
O=C(N1CCN(c2ccc(Cl)cc2)CC1)N1CC[S+]([O-])CC1,> 30 µM,,,,
O=C(N1CCN(c2ccc(Cl)cc2)CC1)N1CCS(=O)(=O)CC1,> 30 µM,,,,
O=C(N1CCOCC1)N1CCN(c2cnc3ccccc3c2)CC1,2.9 µM,> 30 µM,> 30 µM,> 30 µM,
C#Cc1ccc(N2CCN(C(=O)N3CCOCC3)CC2)cc1,0.66 µM,> 30 µM,> 30 µM,> 30 µM,
O=C(N1CCOCC1)N1CCN(c2ccc(C(F)(F)F)cc2)CC1,0.068 µM,> 30 µM,> 30 µM,> 30 µM,0.022 µM
O=C(N1CCOCC1)N1CCN(c2ccc(Cl)cc2)CC1,0.11 µM,> 30 µM,> 30 µM,> 30 µM,0.018 µM
O=C(N1CCOCC1)N1CCN(c2ccc(Br)cc2)CC1,0.14 µM,> 30 µM,> 30 µM,> 30 µM,0.012 µM
O=C(N1CCOCC1)N1CCN(c2ccc(I)cc2)CC1,0.067 µM,> 30 µM,> 30 µM,> 30 µM,0.01 µM
COC(=O)c1ccc(N2CCN(C(=O)N3CCOCC3)CC2)cc1,> 30 µM,> 30 µM,> 30 µM,> 30 µM,
O=C(O)c1ccc(N2CCN(C(=O)N3CCOCC3)CC2)cc1,> 30 µM,,,,
NC(=O)c1ccc(N2CCN(C(=O)N3CCOCC3)CC2)cc1,> 30 µM,,,,
CNC(=O)c1ccc(N2CCN(C(=O)N3CCOCC3)CC2)cc1,> 30 µM,,,,
CN(C)C(=O)c1ccc(N2CCN(C(=O)N3CCOCC3)CC2)cc1,> 30 µM,,,,
CS(=O)(=O)c1ccc(N2CCN(C(=O)N3CCOCC3)CC2)cc1,5.52 µM,> 30 µM,> 30 µM,> 30 µM,
O=C(N1CCOCC1)N1CCN(c2ccc([N+](=O)[O-])cc2)CC1,0.57 µM,> 30 µM,> 30 µM,> 30 µM,
Cc1ccccc1N1CCN(C(=O)N2CCOCC2)CC1,12.1 µM,,,,
O=C(N1CCOCC1)N1CCN(c2ccccc2Cl)CC1,2.3 µM,> 30 µM,> 30 µM,> 30 µM,
O=C(N1CCOCC1)N1CCN(c2ccccc2C(F)(F)F)CC1,0.7 µM,> 30 µM,> 30 µM,> 30 µM,
O=C(N1CCOCC1)N1CCN(c2cccc(Cl)c2)CC1,5.3 µM,> 30 µM,> 30 µM,> 30 µM,
NC(=O)c1cccc(N2CCN(C(=O)N3CCOCC3)CC2)c1,> 30 µM,,,,
Cc1ccc(N2CCN(C(=O)N3CCOCC3)CC2)cc1,0.36 µM,> 30 µM,> 30 µM,> 30 µM,
COc1ccc(N2CCN(C(=O)N3CCOCC3)CC2)cc1,0.35 µM,> 30 µM,> 30 µM,> 30 µM,
O=C(N1CCOCC1)N1CCN(c2ccc(-c3ccccc3)cc2)CC1,> 30 µM,,,,
O=C(N1CCOCC1)N1CCN(c2ccc3ccccc3c2)CC1,4.9 µM,> 30 µM,> 30 µM,> 30 µM,

# From ChEMBL document CHEMBL3102819, “Morpholylureas are a new class of potent and selective inhibitors of the type 5 17-β-hydroxysteroid dehydrogenase (AKR1C3)” (Bioorg Med Chem, 2014)
